Where two headings read alike, the source gives them in different places.
Legend:
[1] = system: CCRF-CEM human T-cell acute lymphoblastic leukemia cell line; experiment: XTT cytotoxicity (cell growth inhibition), CCRF-CEM
Procedure: The DC-3F hamster lung fibroblast cell line and its actinomycin D-selected sublines (DC-3F/ADII and DC-3F/ADX) were obtained from the Memorial Sloan-Kettering Cancer Center (MSKCC).
(§1) The drug-resistant cell lines were continuously cultured in the presence of the selecting agent, AD, DX, VBL or VM to maintain the drug resistant phenotypes. […] All cells were cultured in RPMI 1640-10% FBS at 37° C. 5% CO2 (see below).
(§2) The cells were cultured at an initial density of 5×10^4 cells/mL. They were maintained in a 5% CO2-humidified atmosphere at 37° C. in RPMI-1640 medium (GIBCO-BRL, Gaithersburg, Md.) containing penicillin (100 U/mL), streptomycin ([…]) (GIBCO-BRL) and 10% heat inactivate fetal bovine serum. Culture for cell suspension (such as for CCRF-CEM, P388 and sublines), were performed by the XTT-microculture tetrazonium method (Scudiero, D. A. et al., Cancer Res. 1988, 48, 4827-4833) in duplicate in 96-well microtiter plates.
(§3) 2′,3′-Bis(methoxy-4-nitro-5-sufophenyl)-5-[(phenylamino)carbonyl]2H-tetrazolium hyudroxide (XTT) was prepared at 1 mg/mL in prewarmed (37° C.) medium without serum. Phenazine methosulfate (PMS) and fresh XTT were mixed together to obtain 0.025 mM PMS-XTT solution (25 μL of the stock 5 mM PMS was added per 5 mL of 1 mg/mL XTT). Following a 72 h incubation, 50 μL of the assay aliquots were added to each well of the cell culture. After incubation at 37° C. for 4 h, absorbance at 450 nm and 630 nm was measured with a microplate reader (EL340, Bio-Tek Instruments, Inc., Winooski, Vt.).

CCRF-CEM/VBL100 = experiment: cells; assay type: cell-based, human; conditions: read-out: IC50
Procedure: as §1, §2, §3

[2] = Table 5, CCRF-CEM/VLB, single determinations

In the case of `CC/C1=C/C[C@@H](/C(C)=C/c2csc(C)n2)OC(=O)C[C@H](O)C(C)(C)C(=O)[C@H](C)[C@@H](O)[C@@H](C)CCC1` [#25], the IC50 [1] is reported as 0.021 µM, the “Rel. Value (potency relative to Epo B)” value ([1]; CCRF-CEM leukemic cells) is reported as 1/60 and the IC50 ([1]; Table 7, CEM) is reported as 0.0212 µM. The IC50 (CCRF-CEM/VBL100; [2]) was 0.077 µM, the IC50 (CCRF-CEM/VBL100; Table 7, CEM/VBL) was 0.077 µM and the IC50 (CCRF-CEM/VBL100) was 0.077 µM.

Compound `CCC[C@@]12CCC[C@H](C)[C@H](O)[C@@H](C)C(=O)C(C)(C)[C@@H](O)CC(=O)O[C@H](/C(C)=C/c3csc(C)n3)C[C@@H]1O2` [#24] has an IC50 [1] of 0.0078 µM, an IC50 ([1]; Table 5, single determinations) of 0.0078 µM and an IC50 ([1]; Table 7, CEM) of 0.0078 µM. It also gave an IC50 (CCRF-CEM/VBL100; [2]) of 0.053 µM, an IC50 (CCRF-CEM/VBL100; Table 7, CEM/VBL) of 0.053 µM and an IC50 (CCRF-CEM/VBL100) of 0.053 µM.

`C/C(=C\c1coc(C)n1)[C@@H]1C/C=C\CCC[C@H](C)[C@H](O)[C@@H](C)C(=O)C(C)(C)[C@@H](O)CC(=O)O1` [#20] gave an IC50 [1] of 0.03 µM, an IC50 ([1]; Table 5, single determinations) of 0.03 µM and an IC50 ([1]; Table 7, CEM) of 0.03 µM. It also gave an IC50 (CCRF-CEM/VBL100; [2]) of 0.049 µM, an IC50 (CCRF-CEM/VBL100; Table 7, CEM/VBL) of 0.049 µM and an IC50 (CCRF-CEM/VBL100) of 0.049 µM.
